Measured values as given in patent publication US12624044B2, “SMARCA degraders and uses thereof” (Kymera Therapeutics, Inc., priority 2019, dated 2026).

Legend:
[1] = target: T1, SMARCA4 (Homo sapiens, UniProt P51532); experiment: SMARCA4 Western blot MV4-11 degradation; format: cell-based; details: 24 h; for Dmax: MV4-11, MV4-11 cells, read-out: SMARCA4 WB MV411 degradation 24 h: Average Dmax %; for DC50: MV4-11 cells, read-out: SMARCA4 WB MV411 degradation 24 h: Average external-Abs DC50
T1 construct: SMARCA2 and SMARCA4 protein degradation in MV4-11 cells; endogenous in cells; host or cells: MV4-11
Procedure: Cells were seeded into 6-well plates (MV4-11: 4×10^6 cells/well/1 ml) and 1 ml of 2× compound solution was added into the well to make the final concentration and the plates were mixed well and incubated for 24 hours (No cytotoxicity was observed). The cell were collected with media and spun at 3000 rpm for 5 minutes. The supernatant was aspirated and the well and the cells were washed with cold PBS once and combined for centrifugation again; the supernatant aspirated again. 200 ul pre-chilled RIPAlysis buffer (Boston BioProducts BP-115D) with protease/phosphatase inhibitor (Roche 05892791001/Roche 04906837001) was directly added into the tube to lyze the cells for 20 minutes on ice. The cell lysate were collected into EP tubes and spun at 13000 rpm for 20 minutes and 72 ul supernatant was transferred to a fresh EP tube containing 18 ul of 5× loading buffer (Beyotime Bio P0015) to make the loading samples. The samples were heated to 100° C. for 10 minutes and cooled to RT and microcentrifuged. 20 ul of samples were loaded onto SDS-PAGE gel (Novex, WG1402BOX) and the gel was run at 80 V for 20 minutes and 120 V for 1.5 hours. The samples were electrotransfer to a NC membrane using wet-transfer method with 250 mA for 2.5 hours. The membrane was blocked with LICOR blocking buffer (LI-COR, 927-50000) for 1 hour. The membrane was washed three times with TBST (CST #9997S), 5 minutes each. Incubation was performed with primary antibody prepared in blocking buffer with 0.1% Tween-20 (Solarbio, P8220) at 4° C. overnight (Anti-SMARCA2/BRM antibody (ab15597) 1:500; Anti-BRG1 antibody [EPR3912] (ab108318) 1:1000; Rabbit anti-Baf180 antibody [EPR15860] (Abcam, ab196022) 1:1000; mouse anti-beta-Actin (8H10D10) (CST #3700) 1:10000). The membrane was washed three times with TBST, 5 minutes each. Incubation with secondary antibody was performed for 1 hour at RT (anti-rabbit IgG (Licor, 926-32211) 1:5000; anti-mouse IgG (LI-COR, 926-68070) 1:5000). The membrane was washed three times with TBST, 5 minutes each and lastly the LiCOR was read.
The letter codes for the percentage of SMARCA degradation after 24 hours (Dmax %) include: A (>90% degradation), B (>70-90% degradation), C (50-70% degradation), and D (<50% degradation).

[2] = target: SMARCA2 (Homo sapiens, UniProt P51531); experiment: MSD SMARCA2 degradation in A549 cell line; format: cell-based; details: 24 h; for Dmax: A549, A549 cells; for DC50: A549 cells, read-out: SMARCA2 MSD A549 degradation 24 h: Average external-Abs DC50
Method in brief: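 A549 cells treated 24 h with compound at final 0.152-1000 nM (3-fold series, DMSO control). Lysates analyzed by MSD immunoassay using anti-SMARCA2/BRM detection and SULFO-TAG secondary antibodies; maximal degradation (Dmax %) reported as letter bins.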

Chain of SMARCA2 (P51531 whole entry): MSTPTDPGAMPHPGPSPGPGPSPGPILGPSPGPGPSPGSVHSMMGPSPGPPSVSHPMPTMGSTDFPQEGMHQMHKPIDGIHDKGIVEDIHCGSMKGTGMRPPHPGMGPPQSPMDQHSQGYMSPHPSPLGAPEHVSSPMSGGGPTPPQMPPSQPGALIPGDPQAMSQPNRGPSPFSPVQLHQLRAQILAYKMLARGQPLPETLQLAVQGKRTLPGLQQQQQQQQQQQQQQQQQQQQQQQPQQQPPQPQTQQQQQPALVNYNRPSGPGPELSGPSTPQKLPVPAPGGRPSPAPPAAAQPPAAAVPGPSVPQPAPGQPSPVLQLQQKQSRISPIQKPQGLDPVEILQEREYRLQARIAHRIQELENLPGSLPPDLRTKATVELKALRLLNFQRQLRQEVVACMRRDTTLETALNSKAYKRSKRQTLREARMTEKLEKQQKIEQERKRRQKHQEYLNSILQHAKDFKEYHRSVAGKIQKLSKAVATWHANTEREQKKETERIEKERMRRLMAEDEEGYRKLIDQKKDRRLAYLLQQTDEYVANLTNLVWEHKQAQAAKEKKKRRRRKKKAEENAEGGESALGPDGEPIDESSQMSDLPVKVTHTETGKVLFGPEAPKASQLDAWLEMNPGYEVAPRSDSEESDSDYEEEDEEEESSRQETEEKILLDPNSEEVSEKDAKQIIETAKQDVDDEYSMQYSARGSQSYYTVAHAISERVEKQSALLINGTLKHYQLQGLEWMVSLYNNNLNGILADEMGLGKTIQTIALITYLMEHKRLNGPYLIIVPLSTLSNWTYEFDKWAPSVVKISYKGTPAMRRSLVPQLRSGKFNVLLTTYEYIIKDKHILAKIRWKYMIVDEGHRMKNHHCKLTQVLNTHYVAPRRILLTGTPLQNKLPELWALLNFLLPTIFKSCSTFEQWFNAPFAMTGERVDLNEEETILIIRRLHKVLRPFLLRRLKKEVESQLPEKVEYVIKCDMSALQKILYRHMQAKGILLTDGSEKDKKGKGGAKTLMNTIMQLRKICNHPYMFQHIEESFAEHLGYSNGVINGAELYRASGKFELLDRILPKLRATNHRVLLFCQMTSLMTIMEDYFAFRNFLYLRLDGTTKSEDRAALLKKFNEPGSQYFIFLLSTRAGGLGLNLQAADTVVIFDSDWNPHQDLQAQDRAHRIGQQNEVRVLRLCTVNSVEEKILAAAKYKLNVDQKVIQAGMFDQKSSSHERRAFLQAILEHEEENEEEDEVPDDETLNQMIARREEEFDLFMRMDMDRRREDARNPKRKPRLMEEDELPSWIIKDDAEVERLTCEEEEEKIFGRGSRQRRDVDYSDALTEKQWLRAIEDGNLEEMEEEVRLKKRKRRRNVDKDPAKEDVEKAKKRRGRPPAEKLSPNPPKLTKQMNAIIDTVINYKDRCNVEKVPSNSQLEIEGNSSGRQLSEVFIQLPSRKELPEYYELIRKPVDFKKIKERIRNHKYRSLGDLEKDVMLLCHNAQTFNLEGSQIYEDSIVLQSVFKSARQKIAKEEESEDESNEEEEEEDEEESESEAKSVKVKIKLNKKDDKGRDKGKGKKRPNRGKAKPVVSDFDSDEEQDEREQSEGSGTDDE
T1 sequence (P51532 whole entry): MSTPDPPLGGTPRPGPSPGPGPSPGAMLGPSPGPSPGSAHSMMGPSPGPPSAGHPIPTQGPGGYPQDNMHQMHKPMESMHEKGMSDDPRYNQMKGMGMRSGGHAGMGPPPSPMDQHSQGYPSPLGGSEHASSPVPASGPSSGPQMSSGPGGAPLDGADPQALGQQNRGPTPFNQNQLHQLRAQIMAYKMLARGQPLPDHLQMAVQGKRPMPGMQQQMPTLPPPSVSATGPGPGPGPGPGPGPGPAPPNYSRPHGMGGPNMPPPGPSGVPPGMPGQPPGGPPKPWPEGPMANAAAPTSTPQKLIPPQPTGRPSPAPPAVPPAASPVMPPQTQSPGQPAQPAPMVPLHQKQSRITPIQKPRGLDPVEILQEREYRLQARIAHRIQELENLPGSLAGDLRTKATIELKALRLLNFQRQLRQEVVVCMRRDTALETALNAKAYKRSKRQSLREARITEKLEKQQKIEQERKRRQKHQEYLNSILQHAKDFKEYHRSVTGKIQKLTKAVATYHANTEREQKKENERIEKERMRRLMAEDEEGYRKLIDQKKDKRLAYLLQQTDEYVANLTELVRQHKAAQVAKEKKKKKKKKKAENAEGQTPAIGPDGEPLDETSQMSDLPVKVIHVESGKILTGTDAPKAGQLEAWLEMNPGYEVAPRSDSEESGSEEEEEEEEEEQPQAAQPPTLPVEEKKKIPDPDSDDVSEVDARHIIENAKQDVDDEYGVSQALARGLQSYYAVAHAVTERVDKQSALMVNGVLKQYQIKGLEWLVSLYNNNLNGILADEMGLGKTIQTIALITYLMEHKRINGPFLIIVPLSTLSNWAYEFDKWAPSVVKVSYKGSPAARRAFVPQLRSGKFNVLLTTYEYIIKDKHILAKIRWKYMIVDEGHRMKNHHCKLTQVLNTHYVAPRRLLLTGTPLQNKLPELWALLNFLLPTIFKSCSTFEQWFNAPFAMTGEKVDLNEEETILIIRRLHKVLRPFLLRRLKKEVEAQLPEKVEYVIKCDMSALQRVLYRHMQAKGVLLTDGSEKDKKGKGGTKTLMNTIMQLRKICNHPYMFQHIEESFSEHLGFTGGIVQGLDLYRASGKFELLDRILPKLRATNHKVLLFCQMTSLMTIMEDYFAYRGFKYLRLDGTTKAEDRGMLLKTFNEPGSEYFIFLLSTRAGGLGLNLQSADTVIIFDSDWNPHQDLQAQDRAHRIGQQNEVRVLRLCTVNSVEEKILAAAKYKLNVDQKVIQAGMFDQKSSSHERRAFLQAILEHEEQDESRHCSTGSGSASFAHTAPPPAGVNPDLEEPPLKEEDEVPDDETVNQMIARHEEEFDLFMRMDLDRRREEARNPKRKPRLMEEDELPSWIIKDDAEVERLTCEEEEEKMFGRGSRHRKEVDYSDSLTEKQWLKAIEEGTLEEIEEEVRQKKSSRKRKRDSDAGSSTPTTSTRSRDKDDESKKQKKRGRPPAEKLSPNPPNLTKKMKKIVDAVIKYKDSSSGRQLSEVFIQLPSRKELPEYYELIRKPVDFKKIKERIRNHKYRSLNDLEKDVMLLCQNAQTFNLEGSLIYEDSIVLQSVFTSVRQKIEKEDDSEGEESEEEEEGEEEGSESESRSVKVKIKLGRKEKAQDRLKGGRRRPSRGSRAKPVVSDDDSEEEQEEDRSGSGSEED

| Structure (SMILES) | Dmax [1] | DC50 [1] | Dmax [2] | DC50 [2] |
| --- | --- | --- | --- | --- |
| Cn1c(=O)n(C2CCC(=O)NC2=O)c2ccc(CCCN3CCC(c4nccc(N5C6CCC5CN(c5cc(-c7ccccc7O)nnc5N)C6)n4)CC3)cc21 (stereo not drawn) [I-278] | > 90% | < 100 nM | > 90% | < 100 nM |
| Cn1c(=O)n(C2CCC(=O)NC2=O)c2ccc([C@H]3CC[C@@H](N4CCC(c5nccc(N6C7CCC6CN(c6cc(-c8ccccc8O)nnc6N)C7)n5)CC4)CC3)cc21 (stereo partly drawn) [I-279, 3-(5-((1s,4s)-4-(4-(4-(3-(3-amino-6-(2-hydroxyphenyl)pyridazin-4-yl)-3,8-diazabicyclo[3.2.1]octan-8-yl)pyrimidin-2-yl)piperidin-1-yl)cyclohexyl)-3-methyl-2-oxo-2,3-dihydro-1H-benzo[d]imidazol-1-yl)piperidine-2,6-dion] | > 90% | < 100 nM | > 90% | < 100 nM |
| Cn1c(=O)n(C2CCC(=O)NC2=O)c2ccc([C@H]3CC[C@H](N4CCC(c5nccc(N6C7CCC6CN(c6cc(-c8ccccc8O)nnc6N)C7)n5)CC4)CC3)cc21 (stereo partly drawn) [I-280, 3-(5-((1r,4r)-4-(4-(4-(3-(3-amino-6-(2-hydroxyphenyl)pyridazin-4-yl)-3,8-diazabicyclo[3.2.1]octan-8-yl)pyrimidin-2-yl)piperidin-1-yl)cyclohexyl)-3-methyl-2-oxo-2,3-dihydro-1H-benzo[d]imidazol-1-yl)piperidine-2,6-dione] | > 90% | < 100 nM | > 90% | < 100 nM |
| Nc1nnc(-c2ccccc2O)cc1-c1cnn(C2CCN([C@H]3CC[C@@H](CNc4ccc5c(c4)C(=O)N(C4CCC(=O)NC4=O)C5=O)CC3)CC2)c1 (stereo partly drawn) [I-281, 5-((((1s,4s)-4-(4-(4-(3-amino-6-(2-hydroxyphenyl)pyridazin-4-yl)-1H-pyrazol-1-yl)piperidin-1-yl)cyclohexyl)methyl)amino)-2-(2,6-dioxopiperidin-3-yl)isoindoline-1,3-dione] | > 90% | < 100 nM | > 90% | < 100 nM |
| Nc1nnc(-c2ccccc2O)cc1-c1cnn(C2CCN(C3CCC(Nc4cccc5c4C(=O)N(C4CCC(=O)NC4=O)C5=O)CC3)CC2)c1 (stereo not drawn) [I-322] | > 90% | < 100 nM | > 90% | < 100 nM |
| Nc1nnc(-c2ccccc2O)cc1-c1cnn(C2CCN(C3CCC(Nc4ccc5c(c4)C(=O)N(C4CCC(=O)NC4=O)C5=O)CC3)CC2)c1 (stereo not drawn) [I-323] | > 90% | < 100 nM | > 90% | < 100 nM |
| Nc1nnc(-c2ccccc2O)cc1-c1cnn(C2CCN(C3CCC(CNc4cccc5c4C(=O)N(C4CCC(=O)NC4=O)C5=O)CC3)CC2)c1 (stereo not drawn) [I-324] | 70 to 90% | < 100 nM | 70 to 90% | < 100 nM |
| Nc1nnc(-c2ccccc2O)cc1-c1cnn(C2CCN([C@H]3CC[C@H](CNc4ccc5c(c4)C(=O)N(C4CCC(=O)NC4=O)C5=O)CC3)CC2)c1 (stereo partly drawn) [I-325, 5-((((1r,4r)-4-(4-(4-(3-amino-6-(2-hydroxyphenyl)pyridazin-4-yl)-1H-pyrazol-1-yl)piperidin-1-yl)cyclohexyl)methyl)amino)-2-(2,6-dioxopiperidin-3-yl)isoindoline-1,3-dione] | 70 to 90% | < 100 nM | 70 to 90% | < 100 nM |
| COc1ccccc1-c1cc(N2CC3CCC(C2)N3c2ncc(C3CCN(CCCc4ccc5c(c4)n(C)c(=O)n5C4CCC(=O)NC4=O)CC3)cn2)c(N)nn1 (stereo not drawn) [I-326] | 50 to 70% | 100 to 500 nM | < 50% | > 1000 nM |
| Cc1ncsc1-c1ccc(CNC(=O)[C@@H]2C[C@@H](O)CN2C(=O)[C@@H](NC(=O)C[C@H]2CC[C@H](N3CCC(n4cc(-c5cc(-c6ccccc6O)nnc5N)cn4)CC3)CC2)C(C)(C)C)cc1 [I-328] | > 90% | < 100 nM | > 90% | 100 to 500 nM |
| Cc1ncsc1-c1ccc(CNC(=O)[C@@H]2C[C@@H](O)CN2C(=O)[C@@H](NC(=O)C2CC3(C2)CC(N2CCC(n4cc(-c5cc(-c6ccccc6O)nnc5N)cn4)CC2)C3)C(C)(C)C)cc1 (stereo partly drawn) [I-329] | > 90% | < 100 nM | > 90% | 100 to 500 nM |
| Cc1ncsc1-c1ccc(CNC(=O)[C@@H]2C[C@@H](O)CN2C(=O)[C@@H](NC(=O)CCCCCC2CCC(N3CCC(Cn4cc(-c5cc(-c6ccccc6O)nnc5N)cn4)CC3)CC2)C(C)(C)C)cc1 (stereo partly drawn) [I-330] | 70 to 90% | < 100 nM | > 90% | 100 to 500 nM |
| COc1ccccc1-c1cc(N2CC3CCC(C2)N3c2ncc([C@H]3CC[C@@H](CC(=O)N[C@H](C(=O)N4C[C@H](O)C[C@H]4C(=O)NCc4ccc(-c5scnc5C)cc4)C(C)(C)C)CC3)cn2)c(N)nn1 [I-331] | > 90% | < 100 nM | > 90% | 100 to 500 nM |
| Cc1ncsc1-c1ccc(CNC(=O)[C@@H]2C[C@@H](O)CN2C(=O)[C@@H](NC(=O)C[C@H]2CC[C@H](c3cnc(N4C5CCC4CN(c4cc(-c6ccccc6O)nnc4N)C5)nc3)CC2)C(C)(C)C)cc1 [I-332] | > 90% | < 100 nM | > 90% | < 100 nM |
| Cc1ncsc1-c1ccc(CNC(=O)[C@@H]2C[C@@H](O)CN2C(=O)[C@@H](NC(=O)N[C@H]2CC[C@H](c3cnc(N4C5CCC4CN(c4cc(-c6ccccc6O)nnc4N)C5)nc3)CC2)C(C)(C)C)cc1 [I-333] | > 90% | < 100 nM | < 50% | > 1000 nM |
| Cc1ncsc1-c1ccc(CNC(=O)[C@@H]2C[C@@H](O)CN2C(=O)[C@@H](NC(=O)N[C@H]2CC[C@@H](c3cnc(N4C5CCC4CN(c4cc(-c6ccccc6O)nnc4N)C5)nc3)CC2)C(C)(C)C)cc1 [I-334] | > 90% | < 100 nM | 70 to 90% | 501 to 1000 nM |
| Cc1ncsc1-c1ccc(CNC(=O)[C@@H]2C[C@@H](O)CN2C(=O)[C@@H](NC(=O)Cc2ccc(-c3cnc(N4C5CCC4CN(c4cc(-c6ccccc6O)nnc4N)C5)nc3)cc2)C(C)(C)C)cc1 [I-335] | > 90% | < 100 nM | > 90% | < 100 nM |
| Cc1ncsc1-c1ccc(CNC(=O)[C@@H]2C[C@@H](O)CN2C(=O)[C@@H](NC(=O)C2CCN(Cc3cnc(N4C5CCC4CN(c4cc(-c6ccccc6O)nnc4N)C5)nc3)CC2)C(C)(C)C)cc1 [I-338] | > 90% | < 100 nM | > 90% | 100 to 500 nM |
| Cc1ncsc1-c1ccc(CNC(=O)[C@@H]2C[C@@H](O)CN2C(=O)[C@@H](NC(=O)N2CCN(Cc3cnc(N4C5CCC4CN(c4cc(-c6ccccc6O)nnc4N)C5)nc3)CC2)C(C)(C)C)cc1 [I-339] | > 90% | < 100 nM | 70 to 90% | 100 to 500 nM |
| Cc1ncsc1-c1ccc(CNC(=O)[C@@H]2C[C@@H](O)CN2C(=O)[C@@H](NC(=O)COCC#Cc2cnc(N3C4CCC3CN(c3cc(-c5ccccc5O)nnc3N)C4)nc2)C(C)(C)C)cc1 [I-340] | > 90% | < 100 nM | > 90% | 100 to 500 nM |
| Cc1ncsc1-c1ccc(CNC(=O)[C@@H]2C[C@@H](O)CN2C(=O)[C@@H](NC(=O)CCCC#Cc2cnc(N3C4CCC3CN(c3cc(-c5ccccc5O)nnc3N)C4)nc2)C(C)(C)C)cc1 [I-341] | > 90% | < 100 nM | > 90% | 100 to 500 nM |
